Columns and labels:
Assay in all cases: CTG-3D luminescence at 96 h relative to day-0 seeding control (ratio to day 0); higher = more growth / less cytotoxicity; PDxO 3D drug screen, 96 h, CTG-3D normalised to day-0 seeding control.
HCI-005.E2 = test system: HCI-005.E2 (organoid from a breast cancer xenograft with a HER2-positive history)
HCI-012 = test system: HCI-012 (organoid from a breast cancer xenograft)
HCI-015 = test system: HCI-015 (organoid from a triple-negative breast cancer xenograft)
HCI-016 = test system: HCI-016 (organoid from a triple-negative breast cancer xenograft)
HCI-017.E2 = test system: HCI-017.E2 (organoid from an ER-positive breast cancer xenograft)
MDA-MB-231 = test system: MDA-MB-231

CNC(=O)c1cccc(-c2ccc3c(N4CCOC[C@@H]4C)nc(N4CCOC[C@@H]4C)nc3n2)c1 [vistusertib]
CTG-3D luminescence at 96 h
Details	12.5 pM	0.00025 µM	0.005 µM	0.1 µM	1 µM	10 µM	100 µM	625 fM
HCI-005.E2	1.89	2.02	2.14	2.05	0.528	0.53	0.57	1.98
HCI-017.E2	1.6	2.166	1.94	1.38	0.698	0.585	0.418	2.18
MDA-MB-231	4.58	4.53	4.66	4.35	3.31	2.7	1.9	4.64

CTG-3D luminescence at 96 h
Details	12.5 pM	0.00025 µM	0.005 µM	0.1 µM	1 µM	10 µM	100 µM	625 fM
HCI-012, days in culture: 143	2.08	2.14	2.4	1.9	1.14	0.875	0.292	1.87
HCI-012, days in culture: 162	2.68	2.6	1.94	2.8	1.21	1.06	0.318	3.34
HCI-012, days in culture: 201	2.73	1.99	1.53	1.7	1.42	0.57	0.745	1.48
HCI-015, days in culture: 172	2.36	1.61	2.07	0.997	0.995	0.545	0.36	2.7
HCI-015, days in culture: 191	1.84	1.24	1.54	0.827	0.859	0.436	0.329	1.43
HCI-015, days in culture: 218	2.16	1.84	2.09	1.41	0.874	0.543	0.305	2.18
HCI-016, days in culture: 153	2.83	1.97	2.44	1.36	1.01	1.52	0.486	1.72
HCI-016, days in culture: 172	2.41	1.96	1.67	1.67	0.7	0.422	0.424	1.42
HCI-016, days in culture: 190	1.92	1.44	1.77	1.19	0.838	0.424	0.374	1.44
HCI-016, days in culture: 199	1.72	1.65	1.77	1.76	0.654	0.556	0.348	1.81
HCI-017.E2, days in culture: 85	3.03	2.04	2.83	1.99	0.732	0.76	0.421	2.95
